Test results as given in ChEMBL document CHEMBL5131561, “Modified Benzofuran-carboxamide Compounds as Glucosylceramide Synthase Inhibitors for Treating Diseases” (ACS Med Chem Lett, 2022).

Target: T1, Ceramide glucosyltransferase (Homo sapiens, UniProt Q16739)
T1 sequence (Q16739 whole entry): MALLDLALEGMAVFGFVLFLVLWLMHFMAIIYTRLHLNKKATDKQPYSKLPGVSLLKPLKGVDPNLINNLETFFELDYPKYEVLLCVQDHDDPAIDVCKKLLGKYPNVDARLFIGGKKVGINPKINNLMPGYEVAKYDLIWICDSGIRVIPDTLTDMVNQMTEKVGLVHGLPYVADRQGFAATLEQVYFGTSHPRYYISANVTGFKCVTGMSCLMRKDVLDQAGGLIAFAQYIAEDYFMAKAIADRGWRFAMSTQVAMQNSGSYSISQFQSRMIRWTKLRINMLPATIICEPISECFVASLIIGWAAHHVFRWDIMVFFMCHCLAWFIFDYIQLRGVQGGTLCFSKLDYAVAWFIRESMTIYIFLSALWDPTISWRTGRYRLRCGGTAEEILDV
Assay: Inhibition of GCS in human A-375 cells using C6-ceramide and UDP-glucose as substrate preincubated for 30 mins followed by substrate addition measured after 20 hrs by UDP-Glo glucosylceramide synthase based luminometer analysis
Format: cell-based

EC50: 0.047 nM
Compound: N#Cc1ccc(Cl)c(-c2cccc3cc(C(=O)N[C@H]4CC[C@@H](O)C4)oc23)c1
